This note sets out measurements from US20230104936A1, “TRPML MODULATORS” (Casma Therapeutics, Inc., priority 2019, published 2023).

Molecules are shown by their SMILES.

The test system of the first test is TFEB. The test can be described thus: TFEB nuclear translocation assay, HeLa wt cells. The class given is cell-based. Particulars: 2 hrs compound treatment, Table 1 does not say HeLa wt or TRPML1 KO. Put shortly:
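TFEB translocation into the nucleus of HeLa wt cells is scored by high-content immunofluorescence after 2 hrs of compound treatment at 37° C, reported as AC50.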
In general, AC50 refers to the concentration giving half of the maximal activity seen. In turn, `CC(c1cccc(F)c1N1CCC(COC(C)(C)C)CC1)S(=O)(=O)c1ccc(C(F)F)cc1` (single isomer, unassigned) [Compound A-977, 4-(tert-butoxymethyl)-1-(2-(1-((4-(difluoromethyl)phenyl)sulfonyl)ethyl)-6-fluorophenyl)piperidine] yielded an AC50 of 2010 to 8000 nM.

Staying with this test, now noted: Homo sapiens, HeLa, 2 h, 2 hrs compound treatment, Table 1 does not say HeLa wt or TRPML1 KO.
The compound `CN(C)S(=O)(=O)c1ccc(S(=O)(=O)Nc2cccc(F)c2N2CCC(C)(N)CC2)cc1` [Compound A-899, N4-[2-(4-amino-4-methylpiperidin-1-yl)-3-fluorophenyl]-N1,N1-dimethylbenzene-1,4-disulfonamide] yielded an AC50 of at least 10000 nM. Still for that read-out and setting: the result for `CC(c1cccc(F)c1N1CCC(CN2C3COCC2C3)CC1)S(=O)(=O)c1ccc(S(=O)(=O)N(C)C)cc1` [Compound A-869, rel-4-[(1R)-1-{3-fluoro-2-[4-({3-oxa-6-azabicyclo[3.1.1]heptan-6-yl}methyl)piperidin-1-yl]phenyl}ethanesulfonyl]-N,N-dimethylbenzene-1-sulfonamide] reads 2010 to 8000 nM; that for `O=S(=O)(Nc1ccccc1N1CCC(c2ccc(Cl)cc2F)CC1)c1cc(F)cc(F)c1` [Compound A-91, N-{2-[4-(4-chloro-2-fluorophenyl)piperidin-1-yl]phenyl}-3,5-difluorobenzene-1-sulfonamide], at least 10000 nM.

On to `NS(=O)(=O)c1ccc(S(=O)(=O)Nc2ccccc2N2CCC(c3ccc(Cl)cc3F)CC2)cc1` [Compound A-482, N1-{2-[4-(4-chloro-2-fluorophenyl)piperidin-1-yl]phenyl}benzene-1,4-disulfonamide], for which the AC50 fell in the range of 2010 to 8000 nM. On the same count and under the same terms, the result for `CC(N1CCN(c2ccccc2NS(=O)(=O)c2ccc(S(=O)(=O)N(C)C)cc2)CC1)C(F)(F)F` (stereo not shown) [Compound A-456, N1,N1-dimethyl-N4-{2-[4-(1,1,1-trifluoropropan-2-yl)piperazin-1-yl]phenyl}benzene-1,4-disulfonamide] reads at most 2000 nM; that for `CN(C)S(=O)(=O)c1ccc(S(=O)(=O)Nc2ccccc2N2CCC3(CC2)COC(C)(C)C3)cc1` [Compound A-440, N4-(2-{3,3-dimethyl-2-oxa-8-azaspiro[4.5]decan-8-yl}phenyl)-N1,N1-dimethylbenzene-1,4-disulfonamide], at most 2000 nM; that for `CN(C)S(=O)(=O)c1ccc(S(=O)(=O)Nc2ccccc2N2CCC(C)(c3ccc(F)cc3Cl)CC2)cc1` [Compound A-205, N4-{2-[4-(2-chloro-4-fluorophenyl)-4-methylpiperidin-1-yl]phenyl}-N1,N1-dimethylbenzene-1,4-disulfonamide], at most 2000 nM.

Regarding `COCCOCCOCC1(C)CCN(c2ccccc2NS(=O)(=O)c2ccc(S(=O)(=O)N(C)C)cc2)CC1` [Compound A-519, N4-[2-(4-{[2-(2-methoxyethoxy)ethoxy]methyl}-4-methylpiperidin-1-yl)phenyl]-N1,N1-dimethylbenzene-1,4-disulfonamide], the AC50 was at most 2000 nM. On the same count and under the same terms, the result for `CN(C)S(=N)(=O)c1ccc(S(=O)(=O)Nc2ccccc2N2CCN(C(=O)C(C)(C)C)CC2)cc1` (stereo not shown) [Compound A-321, 4-({2-[4-(2,2-dimethylpropanoyl)piperazin-1-yl]phenyl}sulfamoyl)-N,N-dimethylbenzene-1-sulfonoimidamide] reads at least 10000 nM; that for `CN(C)S(=O)(=O)c1ccc(NC(=O)c2ccccc2N2CCN(c3ccc(Cl)cc3F)CC2)cc1` [Compound A-9, 2-(4-(4-chloro-2-fluorophenyl)piperazin-1-yl)-N-(4-(N,N-dimethylsulfamoyl)phenyl)benzamide], at most 2000 nM; that for `CN(C)S(=O)(=O)c1ccc(S(=O)(=O)Nc2ccccc2N2CCC(C(=O)Nc3ccccc3)CC2)cc1` [Compound A-338, 1-{2-[4-(dimethylsulfamoyl)benzenesulfonamido]phenyl}-N-phenylpiperidine-4-carboxamide], 2010 to 8000 nM. With `CCC1(N2CCOCC2)CCN(c2ccccc2NS(=O)(=O)c2ccc(S(=O)(=O)N(C)C)cc2)CC1` [Compound A-451, N4-{2-[4-ethyl-4-(morpholin-4-yl)piperidin-1-yl]phenyl}-N1,N1-dimethylbenzene-1,4-disulfonamide], the AC50 was at most 2000 nM. Same read-out and setting: under `CN1CC2(CCN(c3ccccc3N(C)S(=O)(=O)c3ccc(S(=O)(=O)N(C)C)cc3)CC2)c2ccc(F)cc21` [Compound A-243, N1-(2-{6-fluoro-1-methyl-1,2-dihydrospiro[indole-3,4′-piperidin]-1′-yl}phenyl)-N1,N4,N4-trimethylbenzene-1,4-disulfonamide] stands at most 2000 nM. The same measure, in the same setting: under `CC(c1cccc(F)c1N1CCC(CN2C[C@@H](C)O[C@@H](C)C2)CC1)S(=O)(=O)c1ccc(S(=O)(=O)C(F)F)cc1` (stereo partly drawn) [Compound A-800, (2R,6S)-4-[(1-{2-[1-(4-difluoromethanesulfonylbenzenesulfonyl)ethyl]-6-fluorophenyl}piperidin-4-yl)methyl]-2,6-dimethylmorpholine] stands at most 2000 nM; under `CN(C)S(=O)(=O)c1ccc(S(=O)(=O)Nc2ccccc2N2CCN(CC3CCOC3)CC2)cc1` (stereo not shown) [Compound A-509, N1,N1-dimethyl-N4-(2-{4-[(oxolan-3-yl)methyl]piperazin-1-yl}phenyl)benzene-1,4-disulfonamide], 2010 to 8000 nM. The same measure, in the same setting: the result for `CC1(C)CC2(CCN(c3ccccc3NS(=O)(=O)c3ccc(C4CC4)cc3)CC2)CO1` [Compound A-672, 4-cyclopropyl-N-(2-{3,3-dimethyl-2-oxa-8-azaspiro[4.5]decan-8-yl}phenyl)benzene-1-sulfonamide] reads at most 2000 nM; that for `CN(C)S(=N)(=O)c1ccc(S(=O)(=O)Nc2cc(F)ccc2N2CCC(c3c(F)cccc3F)CC2)cc1` (stereo not shown) [Compound A-228, 4-({2-[4-(2,6-difluorophenyl)piperidin-1-yl]-5-fluorophenyl}sulfamoyl)-N,N-dimethylbenzene-1-sulfonoimidamide], at most 2000 nM; that for `CN1CC2(CCC(c3ccccc3NS(=O)(=O)c3ccc(S(=O)(=O)N(C)C)cc3)CC2)c2ccc(F)cc21` (stereo not shown) [Compound A-305, N1-(2-(6′-fluoro-1′-methylspiro[cyclohexane-1,3′-indolin]-4-yl)phenyl)-N4,N4-dimethylbenzene-1,4-disulfonamide], 2010 to 8000 nM. `CN(C)S(=O)(=O)c1ccc(S(=O)(=O)Nc2ccccc2N2CCC(C)(C(=O)NC(C)(C)C)CC2)cc1` [Compound A-361, N-tert-butyl-1-{2-[4-(dimethylsulfamoyl)benzenesulfonamido]phenyl}-4-methylpiperidine-4-carboxamide] showed an AC50 of at most 2000 nM. Regarding `COCC1(C)CCN(c2ccccc2NS(=O)(=O)Cc2ccc(F)cc2)CC1` [Compound A-580, 1-(4-fluorophenyl)-N-{2-[4-(methoxymethyl)-4-methylpiperidin-1-yl]phenyl}methanesulfonamide], the AC50 lay in the range of 8010 to 9990 nM.

As to `CN(C)S(=O)(=O)c1ccc(S(=O)(=O)Nc2ccccc2N2CCC(c3ccc(C(=O)O)cc3)CC2)cc1` [Compound A-267, 4-(1-{2-[4-(dimethylsulfamoyl)benzenesulfonamido]phenyl}piperidin-4-yl)benzoic acid], the AC50 is at least 10000 nM. Same read-out and setting: under `COc1ccc(S(=O)(=O)Nc2cccnc2N2CCN(c3ccc(C#N)cc3F)CC2)cc1` [Compound A-117, N-{2-[4-(4-cyano-2-fluorophenyl)piperazin-1-yl]pyridin-3-yl}-4-methoxybenzene-1-sulfonamide] stands at least 10000 nM; under `CN(C)S(=O)(=O)c1ccc(S(=O)(=O)Nc2ccccc2N2CCC(C(=O)C(C)(C)C)CC2)cc1` [Compound A-470, N4-{2-[4-(2,2-dimethylpropanoyl)piperidin-1-yl]phenyl}-N1,N1-dimethylbenzene-1,4-disulfonamide], at most 2000 nM. Still for that read-out and setting: under `C[C@H]1CN(CC2CCN(c3c(F)cccc3NS(=O)(=O)c3ccc(S(=O)(=O)N(C)C)cc3)CC2)[C@@H](C)CO1` [Compound A-862, N4-[2-(4-{[(2S,5S)-2,5-dimethylmorpholin-4-yl]methyl}piperidin-1-yl)-3-fluorophenyl]-N1,N1-dimethylbenzene-1,4-disulfonamide] stands at most 2000 nM; under `CC(c1cccc(F)c1N1CCOCC1)S(=O)(=O)c1ccc2c(c1)CCS2(=O)=O` (stereo not shown) [Compound A-957, 5-{1-[3-fluoro-2-(morpholin-4-yl)phenyl]ethanesulfonyl}-2,3-dihydro-1λ^6-benzothiophene-1,1-dione], at least 10000 nM; under `COCC1(C)CCN(c2ccccc2NS(=O)(=O)Cc2ccc3c(c2)COCC3)CC1` [Compound A-571, 1-(3,4-dihydro-1H-2-benzopyran-7-yl)-N-{2-[4-(methoxymethyl)-4-methylpiperidin-1-yl]phenyl}methanesulfonamide], 2010 to 8000 nM. Same read-out and setting: under `CN(C)S(=O)(=O)c1ccc(S(=O)(=O)Nc2nnc(N3CCN(c4ccc(Cl)cc4F)CC3)s2)cc1` [Compound A-36, N4-{5-[4-(4-chloro-2-fluorophenyl)piperazin-1-yl]-1,3,4-thiadiazol-2-yl}-N1,N1-dimethylbenzene-1,4-disulfonamide] stands at most 2000 nM; under `COc1ccc(S(=O)(=O)Nc2ccccc2-c2ccc(F)cc2F)cc1` [Compound A-167, N-(2′,4′-difluoro-[1,1′-biphenyl]-2-yl)-4-methoxybenzenesulfonamide], 2010 to 8000 nM; under `CC(c1ccccc1N1CCN(C(=O)C(C)(C)C)CC1)S(=O)(=O)c1ccc(S(=O)(=O)N(C)C)cc1` (stereo not shown) [Compound A-474, 4-(1-{2-[4-(2,2-dimethylpropanoyl)piperazin-1-yl]phenyl}ethanesulfonyl)-N,N-dimethylbenzene-1-sulfonamide], 2010 to 8000 nM. In the case of `CN(C)S(=O)(=O)c1ccc(S(=O)(=O)Nc2ccccc2N2CCN(C(=O)C34CCCCC3C4)CC2)cc1` (stereo not shown) [Compound A-487, N4-[2-(4-{bicyclo[4.1.0]heptane-1-carbonyl}piperazin-1-yl)phenyl]-N1,N1-dimethylbenzene-1,4-disulfonamide], the AC50 is at most 2000 nM.
